Data reported in US20230232837A1, “NOVEL FORMULATIONS FOR INCREASING THE GERMINATION RATE OF FUNGAL SPORES” (priority 2020, published 2023).

Legend:
[1] = system: Trichoderma asperellum strain B35; assay: Germination rate after air-drying with protectants, strain B35; assay type: cell-based; settings: after air-drying at room temperature overnight; material:spore 1:1, lecithin 1:10
Method: (§1) The spores of Trichoderma strains T1 and B35 were prepared by Solid State Fermentation (SSF) and harvested, then centrifuged to form a spore paste. T1 is used here as an abbreviation for Trichoderma atroviride strain T1 with a culture collection No. I123-7 (French collection), while B35 is used here as an abbreviation for Trichoderma asperellum strain B35, deposited in the German Culture collection under the No. DSM33245.
(§2) For the air-drying experiments (explained further below), in order to get a protectant-to-spore mass ratio of 1:1 (except for lecithin), 12 g of the spore paste was mixed with 3 g of the protectant in order to get a total of 15 g. The spore concentration in the paste is about 25%, which makes then 3 g of spore in contact with 3 g of protectant. The mixture of protectants and paste were mixed for 5 min and 3400 rpm using an Ultra-Turrax equipment (IKA T25). In case of the test for lecithin, 1.5 g of a 20% lecithin solution was added to 13.5 g of spore paste, then mixed according to the afore-mentioned procedure (5 min, 3400 rpm). After mixing, the mixture was poured into a tray and dried at room temperature overnight.
(§3) Germination rates were measured according to the following protocol: The sample with the spores is dispersed in sterile tap water to get a homogenous spore solution. Depending on the initial spore concentration, the sample may need to be diluted up to 1E+07 spores/mL. This dilution then is spread on agar plates (often, 100 μl of dilution spread on a Potato Dextrose Agar plate) with a sterile Drigalski spatula. Depending on the strain type, the plates are incubated at a certain temperature (for example 20° C. for Trichoderma used here) for some time (here 19-24 hours is used) to allow time for germination and forming hyphae. Subsequently, the spores on the plates are analyzed under the microscope in 8 to 10 randomly chosen areas. At least 200 germinated and non-germinated spores are counted. The viability (%) is calculated by 100 times the number of germinated spores to the total spores counted.
(§4) A test was conducted to compare lecithin against other known microbial stabilizers and protectant materials. These materials include different sugars, proteins, skim milk powder, and others. Initially, an air-drying technique in room temperature was used.
(§5) After the spores were air dried with different protectants at room temperature overnight, the germination rate and total dry matter content (DMC, which is a way of expressing total moisture content) of the samples were analyzed.

[2] = Dry matter content / residual moisture by heating balance; assay type: physicochemical; settings: dry matter content after air-drying; for DMC (%) B35: strain B35; for DMC (%) T1: strain T1
Method: For all experiments conducted, dry matter content (as related to total moisture content) was measured by a heating balance apparatus (Sartorius MA 160).
as §5

[3] = system: Trichoderma atroviride strain T1; assay: Germination rate after air-drying with protectants, strain T1; assay type: cell-based; settings: after air-drying at room temperature overnight; material:spore 1:1, lecithin 1:10
Method: as §1, §2, §3, §4, §5

| Compound | Germination rate (%) B35 [1] | DMC (%) B35 [2] [%] | Germination rate (%) T1 [3] | DMC (%) T1 [2] [%] |
| --- | --- | --- | --- | --- |
| OC[C@H]1O[C@@](CO)(O[C@H]2O[C@H](CO)[C@@H](O)[C@H](O)[C@H]2O)[C@@H](O)[C@@H]1O [Sucrose] | 36.45% | 91.59 | – | – |
| O[C@H]1[C@H](O)[C@@H](O)[C@H](O)[C@@H](O)[C@H]1O [Myo-Inositol] | 59.05% | 95.59 | 65.03% | 96.6 |
| OC[C@@H](O)[C@@H](O)[C@H](O)[C@@H](O)CO [Sorbitol/Glucitol] | 13.00% | 93.99 | – | – |
| OC[C@H]1O[C@H](O[C@H]2O[C@H](CO)[C@@H](O)[C@H](O)[C@H]2O)[C@H](O)[C@@H](O)[C@@H]1O [Trehalose] | 43.18% | 91.84 | 68.75% | 90.35 |
| Maltodextrin | 20.38% | 92.49 | 54.55% | 94.46 |
| Chitosan | not soluble | – | not soluble | – |
| OC[C@@H](O)[C@H](O)[C@H](O)[C@@H](O)CO [Ducitol/Galactitol] | not soluble | – | not soluble | – |
| OC[C@@H](O)[C@@H](O)[C@H](O)[C@H](O)CO [Mannitol] | 51.40% | 94.88 | 69.95% | 97.01 |
